“And” between values parts separate entries of the source, which are not always exact repeats. Identical values can stand only once.
Tested on: 695427-040-R-J1-PDC complex spheroid viability
Experiment: Anticancer human tumor 695427-040-R-J1-PDC patient-derived colon adenocarcinoma cell line growth inhibition [POLQ]
Conditions: for viability, T/C: stronger effect = lower value
Method: Multicellular complex tumor spheroid response to Polymerase (POL) inhibitors (novobiocin, ART-558, RP6685) in combination with a variety of drugs and investigational agents in selected tumor cell lines
The POL inhibitors (novobiocin, ART-558, and RP6685) were evaluated both individually and in combination with standard of care and investigational anticancer small molecules within a complex spheroid model of solid tumors. . Complex spheroids include a stromal component modeled by human endothelial cells (HUVEC) and fibroblasts modeled by human mesenchymal stem cells (MSCs). The concentration ranges selected for each drug and investigational agent were based upon clinically achievable concentrations if the clinical Cmax of the agent was known.
Compounds. The drugs and investigational agents: novobiocin (NSC847541), ART-558 (NSC835418), RP-6685 (NSC848927), peposertib (NSC802822), ceralasertib (NSC780249), elimusertib (NSC800525), camonsertib (NSC841442), AZD-1390 (NSC803789), olaparib (NSC753686), talazoparib (NSC767125), rucaparib (NSC756644), sotorasib (NSC818433), MRTX-1133 (NSC836407), SN-38 (NSC673596), topotecan (NSC609699), epotoside (NSC141540), doxorubicin (NSC123127), gemcitabine (NSC613327), 5-fluorouracil (NSC19893), paclitaxel (NSC125973), vemurafenib (NSC761431), MSA-2 (NSC828583), SN-011 (NSC837082), adavosertib (NSC754352), prexasertib (NSC758257), carboplatin (NSC241240) and oxaliplatin (NSC266046), were obtained from the National Cancer Institute (NCI) Developmental Therapeutics Program Chemical Repository (21). The FDA-approved anticancer drug set is available from the Developmental Therapeutics Program at https://dtp.cancer.gov/organization/dscb/obtaining/. […] The stock solutions were prepared in dimethyl sulfoxide (DMSO, Sigma-Aldrich, St. Louis, MO, cat. D2650), except for the platinum compounds which were prepared in saline (Quality Biological, Gaithersburg, MD, cat. 114-055-101), at 800-fold the tested concentration and stored at -70 degrees C prior to their use. All drugs and investigational agents were tested over a range starting from a high concentration at or near the clinical Cmax and decreasing in half-log increments. If the clinical Cmax for an agent had not been determined, the highest concentration tested was 10 microM, except for SN-38, which was tested at a high concentration of 1 microM.
Cell Culture. All cells were maintained in an incubator at 37 degrees C and 5% CO2 with 95% humidity. The PDC lines were cultured according to standard operating procedures established by the NCI PDMR (https://pdmr.cancer.gov). Table 3 of the manuscript, lists the cell lines along with the number of the three cell types plated to form the mct-spheroids and media for tumor cell growth. After thawing, all PDC lines, except 997537-175-T-J1-PDC and 415267-285-R-J2-PDC, were cultured in Matrigel-coated flasks prepared with a working solution of 1X Ham's F-12 nutrient mix, without supplementation (Thermo Fisher Scientific, cat. 11765054), 100 U/mL penicillin-streptomycin (Thermo Fisher Scientific, cat. 15140122), and 2.5% Matrigel (Corning Inc., Corning, NY, cat. 354248) for the first three passages. The two PDC lines 997537-175-T-J1-PDC and 415267-285-R-J2-PDC were cultured on uncoated flasks. The 857933-349-R-J2-PDC line was cultured in 6C/Colon 1B media containing advanced DMEM/F-12 (Thermo Fisher Scientific, cat. 12634028), 10 mM HEPES (Thermo Fisher Scientific, cat. 15630080), 1X GlutaMAX supplement (Thermo Fisher Scientific, cat. 35050061), 0.1 mg/mL primocin (InvivoGen, San Diego, CA, cat. ant-pm-2), 10% defined fetal bovine serum, heat inactivated (HyClone Laboratories Inc., Logan, UT, cat. SH30070.03HI), 50% L-WRN conditioned media (ATCC, cat. CRL-3276), 1.25 mM N-Acetyl-L-cysteine (Sigma-Aldrich, cat. A9165), 10 mM nicotinamide (Sigma-Aldrich, cat. N0636), 1X B-27 supplement (Thermo Fisher Scientific, cat. 17504044), 1X N-2 supplement (Thermo Fisher Scientific, cat. […]
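Also: spheroids exposed to compounds for seven days.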
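For viability, T/C in this document: 100% = DMSO vehicle control viability.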

With C=CC(=O)N1CCN(c2nc(=O)n(-c3c(C)ccnc3C(C)C)c3nc(-c4c(O)cccc4F)c(F)cc23)C(C)C1 (configuration not stated) + COC1C(OC(N)=O)C(O)C(Oc2ccc3c(O)c(NC(=O)c4ccc(O)c(CC=C(C)C)c4)c(=O)oc3c2C)OC1(C)C the IC50 (curve of first compound, second compound 0.0316 µM) was greater than 10 µM, the IC50 (curve of first compound, second compound 0.1 µM) was greater than 10 µM and the IC50 (curve of first compound, second compound 0.316 µM) was greater than 10 µM. The IC50 (curve of first compound, second compound 1 µM) was greater than 10 µM, the IC50 (curve of first compound, second compound 3.16 µM) was greater than 10 µM and the IC50 (curve of first compound, second compound 10 µM) was greater than 10 µM. For the same compound, the viability, T/C (second compound 0.0316 µM, first compound 0.0316 µM) was 99.8%, the viability, T/C (second compound 0.0316 µM, first compound 0.1 µM) was 94.9% and the viability, T/C (second compound 0.0316 µM, first compound 0.316 µM) was 97.9%. For the same compound, the viability, T/C (second compound 0.0316 µM, first compound 1 µM) was 106%, the viability, T/C (second compound 0.0316 µM, first compound 3.16 µM) was 113% and the viability, T/C (second compound 0.0316 µM, first compound 10 µM) was 105%. For the same compound, the viability, T/C (second compound 0.1 µM, first compound 0.0316 µM) was 104%, the viability, T/C (second compound 0.1 µM, first compound 0.1 µM) was 102% and the viability, T/C (second compound 0.1 µM, first compound 0.316 µM) was 106%. It also gave a viability, T/C (second compound 0.1 µM, first compound 1 µM) of 111%, a viability, T/C (second compound 0.1 µM, first compound 3.16 µM) of 118% and a viability, T/C (second compound 0.1 µM, first compound 10 µM) of 122%. The viability, T/C (second compound 0.316 µM, first compound 0.0316 µM) was 106%, the viability, T/C (second compound 0.316 µM, first compound 0.1 µM) was 101% and the viability, T/C (second compound 0.316 µM, first compound 0.316 µM) was 102%. It also gave a viability, T/C (second compound 0.316 µM, first compound 1 µM) of 116%, a viability, T/C (second compound 0.316 µM, first compound 3.16 µM) of 112% and a viability, T/C (second compound 0.316 µM, first compound 10 µM) of 107%. It also gave a viability, T/C (second compound 1 µM, first compound 0.0316 µM) of 109%, a viability, T/C (second compound 1 µM, first compound 0.1 µM) of 102% and a viability, T/C (second compound 1 µM, first compound 0.316 µM) of 105%. It also gave a viability, T/C (second compound 1 µM, first compound 1 µM) of 110%, a viability, T/C (second compound 1 µM, first compound 3.16 µM) of 119% and a viability, T/C (second compound 1 µM, first compound 10 µM) of 117%. It also gave a viability, T/C (second compound 3.16 µM, first compound 0.0316 µM) of 103%, a viability, T/C (second compound 3.16 µM, first compound 0.1 µM) of 109% and a viability, T/C (second compound 3.16 µM, first compound 0.316 µM) of 100%. For the same compound, the viability, T/C (second compound 3.16 µM, first compound 1 µM) was 107%, the viability, T/C (second compound 3.16 µM, first compound 3.16 µM) was 125% and the viability, T/C (second compound 3.16 µM, first compound 10 µM) was 107%. The viability, T/C (second compound 10 µM, first compound 0.0316 µM) was 111%, the viability, T/C (second compound 10 µM, first compound 0.1 µM) was 92.7% and the viability, T/C (second compound 10 µM, first compound 0.316 µM) was 104%. For the same compound, the viability, T/C (second compound 10 µM, first compound 1 µM) was 109%, the viability, T/C (second compound 10 µM, first compound 3.16 µM) was 113% and the viability, T/C (second compound 10 µM, first compound 10 µM) was 114%.

In the case of Cc1cccc(N(C)C(=O)C2C(O)CCN2c2nc(C)cc(C(F)(F)F)c2C#N)c1 (configuration not stated), the viability, T/C (compound 0.0316 µM) is reported as 102% [middle of 13 runs], the viability, T/C (compound 0.1 µM) is reported as 101% [middle of 13 runs] and the viability, T/C (compound 0.316 µM) is reported as 100% [middle of 13 runs]. The viability, T/C (compound 1 µM) was 100% [middle of 13 runs], the viability, T/C (compound 3.16 µM) was 99% [middle of 13 runs] and the viability, T/C (compound 10 µM) was 100% [middle of 13 runs]. It also gave an IC50 (compound alone, run of 10/31/2023) greater than 10 µM and an IC50 (compound alone, run of 11/06/2023) greater than 10 µM.

With C#Cc1c(F)ccc2cc(O)cc(-c3ncc4c(N5CC6CCC(C5)N6)nc(OCC56CCCN5CC(F)C6)nc4c3F)c12 (configuration not stated) the viability, T/C (compound 0.0316 µM) was 102% (2×) and 106%, the viability, T/C (compound 0.1 µM) was 93.8% and 98.8% and 105% and the viability, T/C (compound 0.316 µM) was 95% and 98.2% and 97.1%. The viability, T/C (compound 1 µM) was 98.6% and 102% and 107%, the viability, T/C (compound 3.16 µM) was 90.7% and 98.5% and 95% and the viability, T/C (compound 10 µM) was 76.6% and 91% and 87.1%. For the same compound, the IC50 (curve of compound) was greater than 10 µM.
